Source: publication PMC7479175, “Selection of Potent Inhibitors of Soluble Epoxide Hydrolase for Usage in Veterinary Medicine” (Frontiers in Veterinary Science, 2020)
Where two headings read alike, the source gives them in different places.

How the values were obtained:
[1] = target: T1, Horse sEH (Equus caballus, UniProt F7C407); assay: Primary screen (end point) of the sEH inhibitor library, PHOME substrate; type: biochemical; details: [I] = 100 nM, primary end-point screening; read-out: Horse sEH Inhibition (%) P.
T1 sequence (F7C407 entry or part of it): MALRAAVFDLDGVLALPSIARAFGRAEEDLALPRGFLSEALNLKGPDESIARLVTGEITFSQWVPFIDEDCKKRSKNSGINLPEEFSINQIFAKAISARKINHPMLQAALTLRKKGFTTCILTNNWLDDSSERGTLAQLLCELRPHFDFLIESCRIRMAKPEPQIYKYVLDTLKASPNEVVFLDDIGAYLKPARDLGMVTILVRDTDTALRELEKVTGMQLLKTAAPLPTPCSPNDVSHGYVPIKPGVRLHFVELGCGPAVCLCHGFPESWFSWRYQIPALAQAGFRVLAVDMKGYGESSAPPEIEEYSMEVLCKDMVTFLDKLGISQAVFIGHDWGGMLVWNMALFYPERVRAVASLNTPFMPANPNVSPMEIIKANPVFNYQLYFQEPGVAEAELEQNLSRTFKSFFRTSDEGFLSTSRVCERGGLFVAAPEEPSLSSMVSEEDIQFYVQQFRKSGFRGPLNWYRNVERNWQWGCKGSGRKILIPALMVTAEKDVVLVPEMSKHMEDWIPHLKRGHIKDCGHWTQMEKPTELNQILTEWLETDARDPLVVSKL
Protocol: Primary screening of the library was performed with an inhibitor concentration of 100 nM using PHOME as substrate ([22]). […] The plates were then mixed and incubated at 30°C for 5 min. Across each plate, 30 μL of the working substrate solution (270 μL of 5 mM PHOME solution in DMSO diluted with 3,680 μL of buffer) were added quickly to yield [S]final: 50 μM. Each plate was further incubated at room temperature (horse sEH: 60 min; cat sEH: 45 min; dog sEH: 30 min).

[2] = target: T1, Horse sEH; type: biochemical; details: CMNPC ([S]final = 5 μM) as substrate; average ± standard deviation (n = 3)
Protocol: The sEH activity from the cat, dog and horse liver was further purified to eliminate contaminating esterase activity that could interfere with the screening fluorescent assay ([16]). The cytosolic fraction was loaded on a Q-Sepharose column (100 mL) equilibrated with sodium phosphate buffer (20 mM pH 7.4). After washing of the bound proteins, the sEH activity was eluted with a step gradient of NaCl (0–1 M). The fractions containing the sEH activity were pooled and concentrated using a Centriprep-30. The concentrates were aliquoted and flash frozen, then kept frozen at −80°C until usage. […] Protein concentration was quantified using the Pierce BCA assay (Pierce, Rockford, IL), using Fraction V bovine serum albumin (BSA) as the calibrating standard.
The IC50 values reported herein were determined using either a fluorescent based assay (CMNPC as substrate) for purified enzyme preparations or a radioactive based assay ([^3H]t-DPPO as substrate) for crude enzyme preparations ([20]). The fluorescent assay was used with the purified proteins. […] The substrate (CMNPC) was then added ([S]final = 5 μM). […] The radioactive […] assay was used with the liver crude extracts. […]

[3] = target: T2, sEH activity from liver cytosol of Pig (Sus scrofa, UniProt Q6Q2C2); assay: sEH inhibition potency (IC50), radioactive assay with [3H]t-DPPO, liver cytosol; type: biochemical
T2 construct: The radioactive fluorescent assay was used with the liver crude extracts; from tissue; host or cells: pig liver cytosol (100,000 g supernatant)
T2 sequence (Q6Q2C2 1-555): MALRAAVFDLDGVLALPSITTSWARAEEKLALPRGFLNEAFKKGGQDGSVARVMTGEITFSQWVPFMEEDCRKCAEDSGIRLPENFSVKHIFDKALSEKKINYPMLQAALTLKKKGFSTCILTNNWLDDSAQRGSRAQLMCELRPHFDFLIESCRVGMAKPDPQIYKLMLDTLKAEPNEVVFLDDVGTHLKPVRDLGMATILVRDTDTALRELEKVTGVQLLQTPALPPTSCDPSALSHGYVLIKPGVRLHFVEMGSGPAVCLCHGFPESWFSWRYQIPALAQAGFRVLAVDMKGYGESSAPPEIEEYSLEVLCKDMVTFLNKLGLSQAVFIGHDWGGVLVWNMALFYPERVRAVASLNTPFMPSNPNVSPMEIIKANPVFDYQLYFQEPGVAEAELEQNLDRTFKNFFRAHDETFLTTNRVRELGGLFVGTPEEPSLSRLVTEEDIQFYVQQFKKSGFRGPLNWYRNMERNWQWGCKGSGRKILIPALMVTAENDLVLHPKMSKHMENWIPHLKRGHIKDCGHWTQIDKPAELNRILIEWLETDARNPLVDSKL
Text: (§1) Fresh liver tissues samples (5–30 g) were collected promptly after death from healthy adult cat, dog and horse euthanized for reasons unrelated to this study, and whose bodies were given to science by the owners in line with federal regulations and protocol approved by the Institutional Animal Care and Use Committee at University of California Davis. Similarly, tissues from the other animals tested herein were collected from healthy animals immediately after being slaughter at the university abattoir. Because no animals were directly used or killed for this study, sample collections were exempted from approval by the Institutional Animal Care and Use Committee of the University of California Davis and Michigan State University. […] The tissues were flash-frozen in liquid nitrogen following removal, and then kept at −80°C until used. After thawing on ice, the samples were homogenized in chilled sodium phosphate buffer (20 mM pH 7.4) containing 5 mM EDTA, 1 mM DTT and 1 mM PMSF (tissue weight:buffer volume ratio 1:4). These homogenates were centrifuged at 100,000 g for 60 min at 4°C. The supernatant (the cytosolic fraction) was separated from the pellet, aliquoted and flash frozen in liquid nitrogen, then kept frozen at −80°C until usage.
(§2) The IC50 values reported herein were determined using either a fluorescent based assay (CMNPC as substrate) for purified enzyme preparations or a radioactive based assay ([^3H]t-DPPO as substrate) for crude enzyme preparations ([20]). The fluorescent assay was used with the purified proteins. […] The substrate (CMNPC) was then added ([S]final = 5 μM). […] The radioactive […] assay was used with the liver crude extracts. Extracts were incubated with inhibitors ([I]final = 1–1,000 nM) at 30° C for 5 min in sodium phosphate buffer (pH 7.4) containing 0.1 mg/mL of BSA and 1% of DMSO, prior to substrate introduction ([^3H]t-DPPO [S]final: 50 μM; ~12,000 dpm/assay). The enzymes were incubated at 30°C for 10 min, and the reaction was quenched by the addition of 60 μL methanol and 200 μL isooctane, which extracts the remaining epoxide from the aqueous phase. […] Assays were performed in triplicate.

[4] = target: sEH activity from liver cytosol of Sheep (Ovis aries, UniProt A0ACI6PZ20); assay: as above; type: biochemical
sEH activity from liver cytosol of Sheep, sequence (A0ACI6PZ20 entry or part of it): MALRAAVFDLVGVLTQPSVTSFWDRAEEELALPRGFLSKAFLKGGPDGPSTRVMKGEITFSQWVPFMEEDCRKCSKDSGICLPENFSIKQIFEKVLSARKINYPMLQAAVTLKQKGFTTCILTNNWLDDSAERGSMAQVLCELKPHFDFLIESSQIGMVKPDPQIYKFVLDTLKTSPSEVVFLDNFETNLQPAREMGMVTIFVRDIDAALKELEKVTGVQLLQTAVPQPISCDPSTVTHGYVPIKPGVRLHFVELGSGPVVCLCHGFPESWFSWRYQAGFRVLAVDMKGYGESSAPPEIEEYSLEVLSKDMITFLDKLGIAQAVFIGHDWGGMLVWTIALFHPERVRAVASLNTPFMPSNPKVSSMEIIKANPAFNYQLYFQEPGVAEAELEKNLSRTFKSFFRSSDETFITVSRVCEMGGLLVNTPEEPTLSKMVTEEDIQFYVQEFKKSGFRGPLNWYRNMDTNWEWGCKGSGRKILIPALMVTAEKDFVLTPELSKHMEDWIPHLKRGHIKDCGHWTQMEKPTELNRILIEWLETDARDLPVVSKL
Text: as §1, §2

[5] = Microsomal stability; type: in vitro ADME, cat; details: for Stability (% without microsomes) Cat liver microsomes NADPH + / Stability (% without microsomes) Cat liver microsomes NADPH –: 1 μM inhibitor, microsomes 1 mg/mL, 37°C, 30 min, compound remaining, average ± SD (n = 3); for Stability (% without microsomes) Cat liver microsomes NADPH +: with NADPH; for metabolism in cat liver microsomes (in words): in the presence of NADPH
Protocol: (§3) The stability of the sEH inhibitors was determined using liver microsomes as described ([24]). […] After 30 min at 37°C, the reaction was stopped by the addition of one volume of methanol containing CUDA (200 nM) as surrogate. The amount of remaining inhibitor was determined by LC/MS/MS. The stability is reported as a percentage of compound remaining after 30 min in these conditions.
(§4) Mass spectrometry analyses were performed using a Waters Quattro Premier triple quadrupole tandem mass spectrometer (Micromass, Manchester, UK) interfaced to an electrospray ionization (ESI) source. The MS was coupled with a Waters Acquity UPLC (Waters, Milford, MA, USA). A Varian Pursuit5 C18 RP HPLC column (150 mm × 2.1 mm, particle size 5 μm) was used to separate the analytes. […] The source and the desolvation temperatures were set at 120 and 300°C, respectively. […] Dwell time was set to 0.1 s.

[6] = Microsomal stability; type: in vitro ADME, dog; details: for Stability (% without microsomes) Dog liver microsomes NADPH + / Stability (% without microsomes) Dog liver microsomes NADPH –: 1 μM inhibitor, microsomes 1 mg/mL, 37°C, 30 min, compound remaining, average ± SD (n = 3); for Stability (% without microsomes) Dog liver microsomes NADPH +: with NADPH; for metabolism in dog liver microsomes (in words): in the presence of NADPH
Protocol: as §3, §4

[7] = liver cytosol, [3H]t-DPPO ([S]final = 5 μM) as substrate, read-out: IC50 (nM) Pig
[8] = [3H]t-DPPO ([S]final = 5 μM) as substrate, read-out: IC50 (nM) Sheep

| Structure (SMILES) | inhibition at 0.1 µM [1] | IC50 [2] | IC50 [3, 7] | IC50 [4, 8] | Stability (% without microsomes) Cat liver microsomes NADPH + [5] | Stability (% without microsomes) Cat liver microsomes NADPH – [5] | stability in cat liver microsomes (in words) ([5]; in the absence of NADPH) | Stability (% without microsomes) Dog liver microsomes NADPH + [6] | Stability (% without microsomes) Dog liver microsomes NADPH – [6] | stability in dog liver microsomes (in words) ([6]; in the absence of NADPH) | metabolism in dog liver microsomes (in words) [6] | metabolism in cat liver microsomes (in words) [5] | IC50 [3] | IC50 ([4]; read-out: IC50 (nM) Sheep, [3H]t-DPPO ([S]final = 5 μM) as substrate) |
| --- | --- | --- | --- | --- | --- | --- | --- | --- | --- | --- | --- | --- | --- | --- |
| N#CNC(=O)CCCCCCCCCCCNC(=O)NC12CC3CC(CC(C3)C1)C2 [1,845] | 100% | 0.4 ± 0.01 nM | 81 nM | 7 nM | 9 ± 2% | 5 ± 1% | not stable | 34 ± 11% | 84 ± 3% | not stable | further metabolized | – | – | – |
| O=C(NCCCCOc1ccc(F)cc1)NC12CC3CC(CC(C3)C1)C2 [1,707] | 101% | 0.5 ± 0.03 nM | 6 nM | 2 nM | 5 ± 1% | 101 ± 14% | – | 8 ± 3% | 87 ± 17% | – | metabolized rapidly | metabolized rapidly | – | – |
| O=C(Nc1ccc(OC(F)(F)F)cc1)N[C@H]1CC[C@H](Oc2ccc(C(=O)O)cc2)CC1 [1,728, trans-4-{4-[3-(4-trifluoromethoxy-phenyl)-ureido]-cyclohexyloxy}-benzoic acid] | – | – | – | – | 101 ± 3% | 103 ± 8% | – | 100 ± 3% | 104 ± 3% | – | most stable | most stable | 9 nM | 6 nM |
